# From patent publication US7763287B2, “Extract of Cercis chinensis having anti-oxidant activity and anti-aging activity, and cosmetical composition containing the extract for anti-oxidation, skin-aging protection and wrinkle improvement” (Hankook Pharm. Co., Inc., priority 2002, dated 2010)
# Columns and labels:
# HEK-N/F cells = test: Protection of cells from oxidative damage induced by t-butylhydroperoxide; type: cell-based, human; settings: 1.5 mM t-butylhydroperoxide 3 hours
# Protocol: t-butylhydroperoxide is metabolized into a free radical intermediate as it comes in a cell, so that it causes lipid peroxidation, resulting in cell damage. This phenomenon is similar to that caused by oxidataive stress accumulated in cells and tissues. […] HEK-N/F, an epidermal cell line of a newborn baby, was treated with 1.5 mM of t-butylhydroxyperoxide for 3 hours.
# [1] = Superoxide radical scavenging activity (xanthine/xanthine oxidase, NBT); type: biochemical; settings: Table 6
# Protocol: Superoxide radical (O^2−) itself has a little reactivity, but is easily changed into H2O2 that generates hydroxyl radical having strong reactivity or is reacted with nitric oxide (NO.) to generate peroxy nitrite (ONOO^−) having strong reactivity, too. Thus, it might be a reason for oxidation of SH-group, nitration of protein tyrosine, lipid peroxidation and DNA damage. […] Basically, measurement of superoxide radical scavenging activity was performed by investigating the activity of superoxide dismutase (SOD), an enzyme scavenging superoxide by dismutation of the same. In the present invention, an activity of a sample to inhibit superoxide production by the enzyme reaction of xanthine/xanthine oxidase and its another activity to inhibit reaction (NBT+20^2−→NBTH2+2O2) generating formazan by reduction of nitro blue tetrazolium (referred as ‘NBT’ hereinafter) were measured. Particularly, wells of a 96-well plate were supplemented with 50 μl of 4 mM xanthine (Sigma), 50 μl of […] NBT (Sigma), 50 μl of 50 mM phosphate buffer (pH 7.8, 1 mM EDTA) and 10 μl of each sample, into which 40 μl of xanthine oxidase was added to induce a reaction. After the reaction was completed, each reaction solution was collected as scheduled, and OD550 was measured with an ELISA reader. […] Superoxide Radical Scavenging Activity (%)=(Acontrol−Asample)/(Acontrol−Ablank)×100 <Mathematical Formula 4> […]
smiles,measurement,setting,value
"O=c1c(O)c(-c2cc(O)c(O)c(O)c2)oc2cc(O)cc(O)c12 [Chemical Formula 9, myricetin]",Cell survival rate (%),HEK-N/F cells,61.0±4.5%
same,TBARS (pmol/mg protein),HEK-N/F cells; compound 50.0 µg/ml,810.7 ± 77.0 pmol/mg protein
same,Superoxide radical scavenging activity IC50,[1],12.1 ± 1.1 µg/mL
